Source: ChEMBL document CHEMBL1697781, “Assessment of the health effects of chemicals in humans: II. Construction of an adverse effects database for QSAR modeling” (Curr Drug Discov Technol, 2004)

Tested on: Hepatotoxicity
Assay: FDA HLAED, alkaline phosphatase increase
Conditions: human
Wherever GGT Increase - Index Value is given: reference of the scale not given here.
Wherever LDH Increase - Index Value is given: reference of the scale not given here.

Compound	Alkaline Phosphatase Increase - Activity Score	Alkaline Phosphatase Increase - Index Value	Alkaline Phosphatase Increase - Number of Reports
CC(C(=O)O)c1ccc(C(=O)c2cccs2)cc1 (configuration not stated) [SUPROFEN]	Inactive	6.1	< 4
Nc1c2c(nc3ccccc13)CCCC2 [TACRINE]	Active	14.1	>= 4
CCOC(=O)c1ccc(C#Cc2ccc3c(c2)C(C)(C)CCS3)nc1 [TAZAROTENE]	Inactive	0	< 4
COc1cc([C@@H]2c3cc4c(cc3[C@@H](O[C@@H]3O[C@@H]5CO[C@@H](c6cccs6)O[C@H]5[C@H](O)[C@H]3O)[C@H]3COC(=O)[C@H]23)OCO4)cc(OC)c1O [TENIPOSIDE]	Inactive	0	< 4
COc1cc2nc(N3CCN(C(=O)C4CCCO4)CC3)nc(N)c2cc1OC (configuration not stated) [TERAZOSIN]	Inactive	0.5	< 4
CN(C/C=C/C#CC(C)(C)C)Cc1cccc2ccccc12 [TERBINAFINE]	Inactive	1.1	>= 4
CC(C)N1CCN(c2ccc(OCC3COC(Cn4cncn4)(c4ccc(Cl)cc4Cl)O3)cc2)CC1 (configuration not stated) [TERCONAZOLE]	Inactive	0	< 4
CC(C)(C)c1ccc(C(O)CCCN2CCC(C(O)(c3ccccc3)c3ccccc3)CC2)cc1 (configuration not stated) [TERFENADINE]	Inactive	0.6	>= 4
C[C@]12CC[C@H]3[C@@H](CCC4=CC(=O)CC[C@@]43C)[C@@H]1CC[C@@H]2OC(=O)CCC1CCCC1 [TESTOSTERONE CYPIONATE]	Inactive	0	< 4

Tested on: Hepatotoxicity
Assay: FDA HLAED, lactate dehydrogenase (LDH) increase
Conditions: human

Compound	LDH Increase - Activity Score	LDH Increase - Index Value	LDH Increase - Number of Reports
CC(C(=O)O)c1ccc(C(=O)c2cccs2)cc1 (configuration not stated) [SUPROFEN]	Inactive	0	< 4
Nc1c2c(nc3ccccc13)CCCC2 [TACRINE]	Active	19	>= 4
CCOC(=O)c1ccc(C#Cc2ccc3c(c2)C(C)(C)CCS3)nc1 [TAZAROTENE]	Inactive	0	< 4
COc1cc([C@@H]2c3cc4c(cc3[C@@H](O[C@@H]3O[C@@H]5CO[C@@H](c6cccs6)O[C@H]5[C@H](O)[C@H]3O)[C@H]3COC(=O)[C@H]23)OCO4)cc(OC)c1O [TENIPOSIDE]	Inactive	0	< 4
COc1cc2nc(N3CCN(C(=O)C4CCCO4)CC3)nc(N)c2cc1OC (configuration not stated) [TERAZOSIN]	Inactive	0.5	< 4
CN(C/C=C/C#CC(C)(C)C)Cc1cccc2ccccc12 [TERBINAFINE]	Inactive	1.1	>= 4
CC(C)N1CCN(c2ccc(OCC3COC(Cn4cncn4)(c4ccc(Cl)cc4Cl)O3)cc2)CC1 (configuration not stated) [TERCONAZOLE]	Inactive	0	< 4
CC(C)(C)c1ccc(C(O)CCCN2CCC(C(O)(c3ccccc3)c3ccccc3)CC2)cc1 (configuration not stated) [TERFENADINE]	Inactive	0.2	< 4
C[C@]12CC[C@H]3[C@@H](CCC4=CC(=O)CC[C@@]43C)[C@@H]1CC[C@@H]2OC(=O)CCC1CCCC1 [TESTOSTERONE CYPIONATE]	Inactive	2.4	< 4

Tested on: Hepatotoxicity
Assay: FDA HLAED, liver enzyme composite activity
Conditions: human

Compound	Composite Activity - Active	Composite Activity - Marginal	Composite Activity - Score
CC(C(=O)O)c1ccc(C(=O)c2cccs2)cc1 (configuration not stated) [SUPROFEN]	0	0	Inactive
CCOC(=O)c1ccc(C#Cc2ccc3c(c2)C(C)(C)CCS3)nc1 [TAZAROTENE]	0	0	Inactive
COc1cc([C@@H]2c3cc4c(cc3[C@@H](O[C@@H]3O[C@@H]5CO[C@@H](c6cccs6)O[C@H]5[C@H](O)[C@H]3O)[C@H]3COC(=O)[C@H]23)OCO4)cc(OC)c1O [TENIPOSIDE]	0	0	Inactive
COc1cc2nc(N3CCN(C(=O)C4CCCO4)CC3)nc(N)c2cc1OC (configuration not stated) [TERAZOSIN]	0	0	Inactive
CN(C/C=C/C#CC(C)(C)C)Cc1cccc2ccccc12 [TERBINAFINE]	0	1	Inactive
CC(C)N1CCN(c2ccc(OCC3COC(Cn4cncn4)(c4ccc(Cl)cc4Cl)O3)cc2)CC1 (configuration not stated) [TERCONAZOLE]	0	0	Inactive
CC(C)(C)c1ccc(C(O)CCCN2CCC(C(O)(c3ccccc3)c3ccccc3)CC2)cc1 (configuration not stated) [TERFENADINE]	0	0	Inactive
C[C@]12CC[C@H]3[C@@H](CCC4=CC(=O)CC[C@@]43C)[C@@H]1CC[C@@H]2OC(=O)CCC1CCCC1 [TESTOSTERONE CYPIONATE]	0	0	Inactive

Same assay, conditions: human, Liver

Compound	Composite Activity - Active	Composite Activity - Marginal	Composite Activity - Score
Nc1c2c(nc3ccccc13)CCCC2 [TACRINE]	5	0	Active

Tested on: Hepatotoxicity
Assay: FDA HLAED, serum glutamic oxaloacetic transaminase (SGOT) increase
Conditions: human

Compound	SGOT Increase - Activity Score	SGOT Increase - Index Value	SGOT Increase - Number of Reports
CC(C(=O)O)c1ccc(C(=O)c2cccs2)cc1 (configuration not stated) [SUPROFEN]	Inactive	6.1	< 4
Nc1c2c(nc3ccccc13)CCCC2 [TACRINE]	Active	58.1	>= 4
CCOC(=O)c1ccc(C#Cc2ccc3c(c2)C(C)(C)CCS3)nc1 [TAZAROTENE]	Inactive	0	< 4
COc1cc([C@@H]2c3cc4c(cc3[C@@H](O[C@@H]3O[C@@H]5CO[C@@H](c6cccs6)O[C@H]5[C@H](O)[C@H]3O)[C@H]3COC(=O)[C@H]23)OCO4)cc(OC)c1O [TENIPOSIDE]	Inactive	0	< 4
COc1cc2nc(N3CCN(C(=O)C4CCCO4)CC3)nc(N)c2cc1OC (configuration not stated) [TERAZOSIN]	Inactive	1.6	>= 4
CN(C/C=C/C#CC(C)(C)C)Cc1cccc2ccccc12 [TERBINAFINE]	Marginally Active	3.1	>= 4
CC(C)N1CCN(c2ccc(OCC3COC(Cn4cncn4)(c4ccc(Cl)cc4Cl)O3)cc2)CC1 (configuration not stated) [TERCONAZOLE]	Inactive	0	< 4
CC(C)(C)c1ccc(C(O)CCCN2CCC(C(O)(c3ccccc3)c3ccccc3)CC2)cc1 (configuration not stated) [TERFENADINE]	Inactive	0.7	>= 4
C[C@]12CC[C@H]3[C@@H](CCC4=CC(=O)CC[C@@]43C)[C@@H]1CC[C@@H]2OC(=O)CCC1CCCC1 [TESTOSTERONE CYPIONATE]	Inactive	4.8	< 4

Tested on: Hepatotoxicity
Assay: FDA HLAED, gamma-glutamyl transferase (GGT) increase
Conditions: human

Compound	GGT Increase - Activity Score	GGT Increase - Index Value	GGT Increase - Number of Reports
CC(C(=O)O)c1ccc(C(=O)c2cccs2)cc1 (configuration not stated) [SUPROFEN]	Inactive	0	< 4
Nc1c2c(nc3ccccc13)CCCC2 [TACRINE]	Active	17.4	>= 4
CCOC(=O)c1ccc(C#Cc2ccc3c(c2)C(C)(C)CCS3)nc1 [TAZAROTENE]	Inactive	0	< 4
COc1cc([C@@H]2c3cc4c(cc3[C@@H](O[C@@H]3O[C@@H]5CO[C@@H](c6cccs6)O[C@H]5[C@H](O)[C@H]3O)[C@H]3COC(=O)[C@H]23)OCO4)cc(OC)c1O [TENIPOSIDE]	Inactive	0	< 4
COc1cc2nc(N3CCN(C(=O)C4CCCO4)CC3)nc(N)c2cc1OC (configuration not stated) [TERAZOSIN]	Inactive	0.8	< 4
CN(C/C=C/C#CC(C)(C)C)Cc1cccc2ccccc12 [TERBINAFINE]	Inactive	2.6	>= 4
CC(C)N1CCN(c2ccc(OCC3COC(Cn4cncn4)(c4ccc(Cl)cc4Cl)O3)cc2)CC1 (configuration not stated) [TERCONAZOLE]	Inactive	0	< 4
CC(C)(C)c1ccc(C(O)CCCN2CCC(C(O)(c3ccccc3)c3ccccc3)CC2)cc1 (configuration not stated) [TERFENADINE]	Inactive	0.1	< 4
C[C@]12CC[C@H]3[C@@H](CCC4=CC(=O)CC[C@@]43C)[C@@H]1CC[C@@H]2OC(=O)CCC1CCCC1 [TESTOSTERONE CYPIONATE]	Inactive	4.8	< 4

Tested on: Hepatotoxicity
Assay: FDA HLAED, serum glutamic pyruvic transaminase (SGPT) increase
Conditions: human

Compound	SGPT Increase - Activity Score	SGPT Increase - Index Value	SGPT Increase - Number of Reports
CC(C(=O)O)c1ccc(C(=O)c2cccs2)cc1 (configuration not stated) [SUPROFEN]	Inactive	0	< 4
Nc1c2c(nc3ccccc13)CCCC2 [TACRINE]	Active	170	>= 4
CCOC(=O)c1ccc(C#Cc2ccc3c(c2)C(C)(C)CCS3)nc1 [TAZAROTENE]	Inactive	0	< 4
COc1cc([C@@H]2c3cc4c(cc3[C@@H](O[C@@H]3O[C@@H]5CO[C@@H](c6cccs6)O[C@H]5[C@H](O)[C@H]3O)[C@H]3COC(=O)[C@H]23)OCO4)cc(OC)c1O [TENIPOSIDE]	Inactive	0	< 4
COc1cc2nc(N3CCN(C(=O)C4CCCO4)CC3)nc(N)c2cc1OC (configuration not stated) [TERAZOSIN]	Inactive	1.3	>= 4
CN(C/C=C/C#CC(C)(C)C)Cc1cccc2ccccc12 [TERBINAFINE]	Inactive	2.8	>= 4
CC(C)N1CCN(c2ccc(OCC3COC(Cn4cncn4)(c4ccc(Cl)cc4Cl)O3)cc2)CC1 (configuration not stated) [TERCONAZOLE]	Inactive	0	< 4
CC(C)(C)c1ccc(C(O)CCCN2CCC(C(O)(c3ccccc3)c3ccccc3)CC2)cc1 (configuration not stated) [TERFENADINE]	Inactive	0.7	>= 4
C[C@]12CC[C@H]3[C@@H](CCC4=CC(=O)CC[C@@]43C)[C@@H]1CC[C@@H]2OC(=O)CCC1CCCC1 [TESTOSTERONE CYPIONATE]	Inactive	7.2	< 4
